We go through 17 molecules from ChEMBL document CHEMBL1142400, “An updated steroid benchmark set and its application in the discovery of novel nanomolar ligands of sex hormone-binding globulin” (J Med Chem, 2008).

For the assay, the target named is T1, Sex hormone-binding globulin (Homo sapiens, UniProt P04278).
T1 sequence (P04278 whole entry): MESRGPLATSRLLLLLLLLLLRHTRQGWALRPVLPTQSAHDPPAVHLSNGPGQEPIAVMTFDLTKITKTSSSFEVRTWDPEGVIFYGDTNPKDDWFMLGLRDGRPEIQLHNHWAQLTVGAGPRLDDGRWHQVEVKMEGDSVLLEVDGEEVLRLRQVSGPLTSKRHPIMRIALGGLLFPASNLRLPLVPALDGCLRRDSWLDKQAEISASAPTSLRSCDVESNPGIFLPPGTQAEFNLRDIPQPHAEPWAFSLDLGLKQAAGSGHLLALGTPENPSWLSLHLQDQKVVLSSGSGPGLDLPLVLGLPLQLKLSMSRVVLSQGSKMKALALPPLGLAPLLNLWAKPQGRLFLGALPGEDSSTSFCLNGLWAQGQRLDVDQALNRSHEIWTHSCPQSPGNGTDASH
As to the kind of experiment: Displacement of [3H]5alpha dihydrotestosterone from human sex hormone binding globulin.

For orientation: Kd means the equilibrium constant for the complex coming apart. A high value points to weaker binding. As to `C#C[C@]1(O)CC[C@H]2[C@@H]3CCC4=CC(=O)CC[C@@H]4[C@H]3C(=C)C[C@@]21CC` [ETONOGESTREL], the affinity, expressed as Kd, was 0.00589 µM.
`O=c1c(-c2ccc(O)cc2)coc2cc(O)cc(O)c12` [GENISTEIN] gave a Kd of 39.8 µM.
`C#C[C@]1(O)CC[C@H]2[C@@H]3CCC4=CC(=O)CCC4=C3C=C[C@@]21CC` [GESTRINONE] showed a Kd of 0.00776 µM.
`C[C@]12CCC(=O)C=C1CC[C@@H]1[C@@H]2[C@@H](O)C[C@@]2(C)[C@H]1CC[C@]2(O)C(=O)CO` [HYDROCORTISONE] had a Kd of 0.631 µM.
In turn, `CC(=O)[C@@]1(O)CC[C@H]2[C@@H]3CCC4=CC(=O)CC[C@]4(C)[C@H]3CC[C@@]21C` [HYDROXYPROGESTERONE] had a dissociation constant (Kd) of 0.1 µM.
The molecule `COc1cc(C[C@H]2COC(=O)[C@@H]2Cc2ccc(O)c(OC)c2)ccc1O` [MATAIRESINOL] showed a Kd of 0.309 µM.
Consider `CC(=O)O[C@]1(C(C)=O)CC[C@H]2[C@@H]3C[C@H](C)C4=CC(=O)CC[C@]4(C)[C@H]3CC[C@@]21C` [MEDROXYPROGESTERONE ACETATE], for which binding was put at a Kd of 0.631 µM.
Molecule `C[C@]12CCC(=O)C[C@@H]1CC[C@@H]1[C@@H]2CC[C@@]2(C)[C@H]1CC[C@]2(C)O` [MESTANOLONE] had a Kd of 0.00155 µM.
In turn, `C[C@H]1CC(=O)C[C@@H]2CC[C@H]3[C@@H]4CC[C@H](O)[C@@]4(C)CC[C@@H]3[C@]21C` [MESTEROLONE] gave a Kd of 0.000251 µM.
As to `C[C@]12CCC(=O)C=C1CC[C@@H]1[C@@H]2CC[C@@]2(C)[C@H]1CC[C@]2(C)O` [METHYLTESTOSTERONE], the Kd is 0.00372 µM.
For the molecule `C[C@]12CC[C@H]3[C@@H](CCC4=CC(=O)CC[C@@H]43)[C@@H]1CC[C@@H]2O` [NANDROLONE], the Kd is 0.501 µM.
Under `C#C[C@]1(O)CC[C@H]2[C@@H]3CCC4=CC(=O)CC[C@@H]4[C@H]3CC[C@@]21C` [NORETHINDRONE] stands 0.0107 µM; under `C[C@]12CC[C@H](O)CC1=CC[C@@H]1[C@@H]2CC[C@]2(C)C(=O)CC[C@@H]12` [PRASTERONE], 0.0145 µM; under `CC(=O)[C@H]1CC[C@H]2[C@@H]3CC=C4C[C@@H](O)CC[C@]4(C)[C@H]3CC[C@]12C` [PREGNENOLONE], 0.0708 µM.
On to `CC(=O)[C@H]1CC[C@H]2[C@@H]3CCC4=CC(=O)CC[C@]4(C)[C@H]3CC[C@]12C` [PROGESTERONE], for which the Kd was 0.115 µM.
Consider `C[C@]12CCC(=O)C[C@@H]1CC[C@@H]1[C@@H]2CC[C@]2(C)[C@@H](O)CC[C@@H]12` [STANOLONE], for which the Kd was 0.000182 µM.
`C[C@]12CC[C@H]3[C@@H](CCC4=CC(=O)CC[C@@]43C)[C@@H]1CC[C@@H]2O` [TESTOSTERONE] had a dissociation constant Kd of 0.000631 µM.
